{"source": "patent US20260014358A1", "about": "“THERMALLY REGULATED TRANSDERMAL DRUG DELIVERY SYSTEM” (Morningside Venture Investments Limited, priority 2018, published 2026)", "conditions": "for Nicotine flow across the skin: passive matrix-type patch containing 21 mg nicotine on human cadaver skin, average of test patches (n=4)", "experimental": "Experiments were carried out by applying passive matrix-type nicotine patches containing 21 mg of nicotine to human cadaver skin and then periodically heating and cooling the patches over a period of 20 hours. Controls with no heating and cooling were tested concurrently. The test patches were subject to 3 cycles of heating and cooling while the control patches were not. Patches were heated for 2 hours, cooled for 5 hours, heated for 2 hours, cooled for 4 hours, heated for 2 hours, and cooled. Nicotine delivery across the skin was measured and averaged for control patches (n=2) and test patches (n=4).", "note": "Where two headings read alike, the source gives them in different places.", "data": [{"compound": "CN1CCCC1c1cccnc1", "note": "(stereo not shown) [Nicotine]", "values": [{"measurement": "Nicotine flow across the skin", "setting": "first 2-hour heating period", "result": "around 4.9 mg/hr"}, {"measurement": "Change of nicotine flow across the skin when heat was applied", "setting": "heated and cooled test patches, 3 cycles over 20 hours, human cadaver skin", "result": "increased"}, {"measurement": "Nicotine flow across the skin", "setting": "second 2-hour heating period (after 5 hours cooling)", "result": "around 2.5 mg/hr"}, {"measurement": "Nicotine flow across the skin", "setting": "third 2-hour heating period (after 4 hours cooling)", "result": "around 1.8 mg/hr"}]}]}
